Consider two compounds from US7547444B1, “Methods for controlling fungi and bacteria” (priority 2003, dated 2009).

In assay [1] the test system is Staphylococcus aureus. The note with it: in vitro, 24 hours at 35° C.
Assay [2] concerns Pseudomonas aerugenosa. As to conditions: in vitro, 24 hours at 35° C.
In assay [3] the test system is Trichophyton mentagrophyt.
Assay [4] concerns Pasturella multocida. The note with it: in vitro, 24 hours at 35° C.
The test system of assay [5] is Streptococcus pyogenes. The note with it: in vitro, 24 hours at 35° C.
Assay [6] concerns Microsporidium canis.
Assay [7] deals with Streptococcus algalactia. The note with it: in vitro, 24 hours at 35° C.
The subject of assay [8] is Cryptococcus neoformans. As to conditions: in vitro, 24 hours at 35 degrees C.
Assay [9] concerns Trichophyton rubrum.
Assay [10] deals with Candida albicans. As to conditions: in vitro, 24 hours at 35 degrees C.
For assay [11], the system named is Vibrio cholerae. The note with it: in vitro, 24 hours at 35° C.
Assay [12] concerns Streptococcus faecalis. The note with it: in vitro, 24 hours at 35° C.
Assay [13] deals with Bordella bronchiseptica. The note with it: in vitro, 24 hours at 35° C.
For assay [14], the system named is E. coli. The note with it: in vitro, 24 hours at 35° C.
For assay [15], the system named is Rhizopus arrihizus.
Assay [16] relates to Saccharomyces cervisciae.
The subject of assay [17] is Aspergillus flavus. The note with it: in vitro, 24 hours at 35 degrees C.
Assay [18] concerns Microsporidium gypseum.
Assay [19] relates to Fusarium solani. The note with it: in vitro, 24 hours at 35 degrees C.
The test system of assay [20] is Trichophyton eguinium.
Assay [21] concerns Aspergillus fumigatus. As to conditions: in vitro, 24 hours at 35 degrees C.
Assay [22] deals with Epidermophyton floccsum.
Assay [23] deals with Candida tropicalis. The note with it: in vitro, 24 hours at 35 degrees C.
Assay [24] concerns Botrytis cinerea. Description: Plant relevant mold panel, microtiter plate growth inhibition (OD 405 nm), IC 90. It counts as cell-based. The note with it: Botrytis cinerea (Vegetable); 18° C. for 7 days.
The subject of assay [25] is Pyrenophora teres. The description is as above. The class given is cell-based. The note with it: Pyrenophora teres (Barley); 18° C. for 7 days.
For assay [26], the system named is roundworms, threadworms, and whipworms. As to conditions: reported; cited from earlier work.
In assay [27] the test system is Fusarium culmorum. The note with it: Fusarium culmorum (Wheat Head); 18° C. for 7 days.
Protocol: (§1) A stock solution of the compound was prepared in DMSO at a concentration of 10,000 ppm a.i. Further dilutions were prepared with water. The test was conducted at the following concentrations: 125, 31, 8, 21, 0.5 and 0.125 ppm a.i. Spore suspensions of the fungi were prepared. The test was conducted in microtiter plates and for each fungus and each concentration, 3 wells were prepared. Incubation of the inoculated plates was carried out at 18° C. for 7 days. After this time, the optical density of the mycelium developed in each well was measured at 405 nm.
In assay [28] the test system is Rhizoctonia solani. Kind of assay: Plant relevant mold panel, microtiter plate growth inhibition (OD 405 nm), IC 90. As to conditions: Rhizoctonia solani (Rice Sheath); 18° C. for 7 days. It counts as cell-based.
Assay [29] relates to Cochliobolus mijabeanus. The note with it: Cochliobolus mijabeanus (Corn); 18° C. for 7 days.
Protocol: as §1
Assay [30] has as its system Phytophthora infestans. The note with it: Phytophthora infestans (Tomato); 18° C. for 7 days.
Assay [31] deals with Colletotrichum lagenarium. Description: Plant relevant mold panel, microtiter plate growth inhibition (OD 405 nm), IC 90. The class given is cell-based. As to conditions: Colletotrichum lagenarium (Mellons); 18° C. for 7 days.
In assay [32] the test system is Septonia tritici. The description is as above. It counts as cell-based. The note with it: Septonia tritici (Wheat Leaf); 18° C. for 7 days.
The test system of assay [33] is Pyricularia oryzae. The note with it: Pyricularia oryzae (Rice); 18° C. for 7 days.
Assay [34] deals with Alternaria solani. The note with it: Alternaria solani (Potato); 18° C. for 7 days.
Protocol: as §1

In general, MIC refers to the smallest concentration in the dilution series that meets the test's criterion for growth inhibition. Higher therefore signals weaker potency. In the case of Stilbazium Chloride [formula I], the minimum inhibitory concentration (MIC) was 0.3 µg/mL in assay [1]; >100 µg/mL in assay [2]; 1.6 µg/mL in assay [3]; 3.0 µg/mL in assay [4]; 1.0 µg/mL in assay [5]; 1.6 µg/mL in assay [6]. In addition, the MIC was 1.0 µg/mL in [7]; <0.4 µg/mL in assay [8]; 1.6 µg/mL in assay [9]; <6 ng/mL in assay [10]; 10.0 µg/mL in [11]; 1.0 µg/mL in [12]. In addition, the MIC in assay [13] is 1.0 µg/mL; in assay [14], >100 µg/mL; in [15], 6.25 µg/mL; in assay [16], <0.4 µg/mL; in [17], 6.25 µg/mL; in assay [18] it was 1.6 µg/mL. The MIC in assay [19] is <0.4 µg/mL; in assay [20] it was 1.6 µg/mL; in [21], <6 ng/mL; in [22] it was 1.6 µg/mL; in assay [23] it was <0.4 µg/mL.
With `CC[n+]1c(/C=C/c2ccc(N3CCCC3)cc2)cccc1/C=C/c1ccc(N2CCCC2)cc1.[I-]` [Stilbazium iodide], the IC90 in assay [24] was 0.5 ppm a.i; in assay [25], 31 ppm a.i; in assay [27] it was >125 ppm a.i; in assay [28] it was 2 ppm a.i; in assay [29], >125 ppm a.i; in assay [30], 2 ppm a.i. The IC90 in [31] is on record as 31 ppm a.i; in assay [32], 2 ppm a.i; in assay [33], 8 ppm a.i; in [34] it was >125 ppm a.i. For the same compound, in assay [26], the anthelmintic effectiveness entry is “effective”.
